Read-outs that look alike come from different tables or passages of the source. Square brackets hold non-standard residues; d marks the D form. Ends that are not written are not given here. pS = N[C@@H](COP(=O)(O)O)C(=O)O
Experiments:
[1] = HA binding assay (pulldown of fluorescein-labeled peptides, Langmuir isotherm fit); settings: for Nmax (maximum monolayer surface concentration) / KA (binding affinity for HA): fit of Langmuir equation; for KA (binding affinity for HA): fluorescein-labeled peptide 0-100 μM, 0.3 mg HA nanocrystals
Method: Fluorescein-labeled DSS-containing peptides of various lengths were subjected to pulldown assays as follows: Samples containing varying concentrations of fluorescein-labeled peptide (0-100 μM) and a fixed amount (0.3 mg) of HA nanocrystals with a specific surface area of 100 m^2/g (Berkeley Advanced Biomaterials, Berkeley, Calif.) were prepared. Measurements were taken of the absorbance of the labeled peptide at 488 nm (the peak absorbance of the fluorescein label) before and after exposure to the HA. The amount of peptide bound was calculated by comparing the ratio of the final (Af) and initial (Ai) absorbances to the initial concentration (C0) [Cbound=(Af/Ai)C0]. Plots were generated of the amount of peptide bound per meter squared of HA surface area vs. concentration of unbound peptide at equilibrium. The resulting isotherms were fit to the Langmuir isotherm, x/m=(KANmaxCeq)/(1+KACeq), where x/m represents the molar amount of peptide bound per unit of HA surface area, KA is the affinity constant of the peptide for the HA surface (L/Mol), Nmax is the maximum surface concentration (mol/m^2), and Ceq is the molar concentration of unbound peptide at equilibrium (Calis et al. (1995) Pharm Res., 12: 1072-1076).
In order to quantitatively assess the strength of the DSS-HA interaction as well as to determine the roles of peptide length and sequence on binding, fluorescein-labeled, DSS-containing peptides of various lengths were subjected to pulldown assays as described in “Materials and Methods.”
The experimental data were fit to the Langmuir isotherm, which describes the binding of molecules to surfaces with the conditions that (1) all binding sites have the same affinity for the peptide and (2) the peptide will form a monolayer on the surface but cannot accumulate to higher levels (Atkins (1994) Physical chemistry. Freeman, New York). The excellent fit of the Langmuir isotherm to the experimental data validates these conditions, and the constants obtained from this analysis were used for comparisons between peptides. As shown in FIG. 7A and summarized in Table 6, both the binding affinity (KA) and the monolayer concentration (NMax) of the various peptides increased with the number of DSS repeats per peptide. Additionally, several variant peptides were tested (FIGS. 7B, 7C, Table 6): a peptide containing a longer side chain at the first position (4ESS (SEQ ID NO:34)), peptides containing a more sterically hindered hydroxyl group at the second and third positions (4DTT (SEQ ID NO:36), 4NTT (SEQ ID NO:38), 4ETT (SEQ ID NO:37)), peptides lacking a charged group at the first position (4NSS (SEQ ID NO:35), 8ASS (SEQ ID NO:26)), and peptides lacking hydroxyl groups at the second and third positions (DAA-8 (SEQ ID NO:40), 8NAA (SEQ ID NO:41)).

[2] = system: Streptococcus mutans strain UA159; assay type: cell-based
Method: The sequences of these fusion proteins are […] NO:24), and […] NO:25) (see SEQ ID NOs:27-29, respectively in WO 2007/038683). The antimicrobial activity of these peptides against anaerobic planktonic bacteria was determined by a modification of a previously described assay. Briefly, Streptococcus mutans strain UA159 cells were diluted to -1×10^5 cfu/mL in Todd-Hewitt (TH) broth medium and mixed with either suspended hydroxyapatite nanocrystals (Berkeley Advanced Biomaterials, Inc., 0.03% w/v) or, for control samples, an equivalent volume of deionized water. Aliquots were transferred into 96-well plates (Fisher). Serial dilutions of the peptides were then made and added to the bacteria. […] Nonetheless, some antimicrobial activity is retained by this peptide.

[3] = Tissue specific binding of labeled peptides to sections of human teeth (CLSM); settings: 5(6)-carboxyfluorescein-labeled peptide, ten minutes; for level of binding (staining) to tooth surfaces: identical settings
Source text: In order to investigate the tissue specificity of DSS peptide binding to tooth tissue, sections of human teeth were exposed to DSS peptides and variants, then imaged by CLSM. The peptides utilized for these experiments were 8DSS (SEQ ID NO:33), 8ASS (SEQ ID NO:26), 8DAA (SEQ ID NO:40), 8NAA (SEQ ID NO:41), 4DSS (SEQ ID NO:31), 4ESS (SEQ ID NO:34), 4NSS (SEQ ID NO:35), 4DTT (SEQ ID NO:36), 4ETT (SEQ ID NO:37), 4NTT (SEQ ID NO:38), and 6DSS (SEQ ID NO:32). Sagittal sections of human teeth extracted during normal clinical practice were polished and then incubated for ten minutes in a solution of the appropriate 5(6) carboxyfluorescein-labeled peptide (12.5pM) containing 10 mM NaCl and 50 mM HEPES, pH 7.0. Control samples were prepared without peptide. Samples were washed extensively after treatment and imaged by CLSM using blue laser illumination (A=488 nm) and a FITC emission filter, with identical camera and microscope settings for each sample. For each section, multiple scans were collected and assembled in an automated mode to generate panels of images representing an area of 13×13 mm, sufficient in most cases to encompass the whole section. […] Significant binding was also seen to the edges of the pulp cavity.

[4] = Binding of labeled peptides to carious lesions in teeth (CLSM); parameters: species or system human; settings: labeled peptide, settings optimized per sample
Source text: Sections of human teeth containing obvious carious lesions, which consist of demineralized enamel, were polished and exposed to 5(6)-carboxyfluorescein-labeled DSS peptides and variants. The sections were washed extensively and imaged by CLSM using blue laser illumination (A=488 nm) and a FITC emission filter, with microscope and camera settings adjusted for each sample to optimize the signal detected from each peptide. The images were examined to identify the relative levels of peptide binding in healthy versus carious tissue. […] Given their ability to remineralize at sites of enamel degradation, they can also be used to initiate remineralization at sites of enamel degradation such as caries or injury sites without causing inappropriate nucleation on healthy tissue surfaces.

Row | Substance | Nmax (maximum monolayer surface concentration) [1] | KA (binding affinity for HA) [1] | effect of sequence variation on binding affinity (KA) relative to DSS peptide of same size ([1]; in words) | level of binding (staining) to tooth surfaces [3] | specificity of binding to carious lesions versus healthy enamel [4] | tissue pattern of binding in the tooth section [3] | other results
1 | 4DS(P)S: phosphorylated DSS repeat peptide of the same size as 4DSS, SEQ ID NO:4 (D[pS]SD[pS]SD[pS]SD[pS]S) | 1.2 × 10^−7 ± 5 × 10^−9 mol/m^2 | 83,000 ± 9,000 M^−1 | did not lead to a significant change in binding affinity | – | – | – | surface binding density relative to unphosphorylated peptide ([1]; in words): large increase in the surface binding density
2 | FHFHLHF [PL-135, FHFHLHF, reference compound] | – | – | – | – | – | – | MIC ([2]; strain UA159, 24 h): 21
3 | ASS ASS ASS ASS ASS ASS ASS ASS (ASSASSASSASSASSASSASSASS; synthetic calcium-binding peptide 8ASS) | – | – | significant loss of binding affinity | lower levels of binding | highly specific binding to carious lesions | – | strength of staining of carious lesions [4]: exceptionally strong staining of carious lesions
4 | NSS NSS NSS NSS (NSSNSSNSSNSS; synthetic calcium-binding peptide 4NSS) | 3.0 × 10^−8 ± 1 × 10^−9 mol/m^2 | 16,000 ± 4,000 M^−1 | significant loss of binding affinity | lower levels of binding | highly specific binding to carious lesions | – | –
5 | DSS DSS DSS DSS (DSSDSSDSSDSS; synthetic calcium-binding peptide 4DSS) | 5.8 × 10^−8 ± 6 × 10^−9 mol/m^2 | 94,000 ± 26,000 M^−1 | – | – | highly specific binding to carious lesions | bound primarily to the mantle dentin | strength of staining of carious lesions [4]: exceptionally strong staining of carious lesions
6 | DTT DTT DTT DTT (DTTDTTDTTDTT; synthetic calcium-binding peptide 4DTT) | 1.3 × 10^−8 ± 1 × 10^−9 mol/m^2 | 161,000 ± 79,000 M^−1 | little observable effect | sharply reduced levels | – | binding patterns similar to those of 4DSS | –
7 | DSS DSS (DSSDSS; synthetic calcium-binding peptide 2DSS) | 2 × 10^−8 ± 5 × 10^−9 mol/m^2 | 57,000 ± 24,000 M^−1 | – | – | – | – | –
8 | DSSDSSDSSDSSGGGRWRWRWF [4DSS-2c4, DSS DSS DSS DSS GGG RWRWRWF] | – | – | – | – | – | – | MIC ([2]; planktonic S. mutans, with 0.03% (w/v) hydroxyapatite, approximately 24 hours): unaffected; MIC ([2]; strain UA159, 24 h): 52.5
9 | DAA DAA DAA DAA DAA DAA DAA DAA (DAADAADAADAADAADAADAADAA; synthetic calcium-binding peptide 8DAA) | 6.0 × 10^−8 ± 6 × 10^−9 mol/m^2 | 310,000 ± 74,000 M^−1 | – | – | highly specific binding to carious lesions | primary binding to the root tip dentin and cortical enamel | effect of sequence variation on binding affinity (KA) relative to DSS peptide of same size ([1]; in words, listed as DAA8): little observable effect; effect of sequence variation on binding affinity (KA) relative to DSS peptide of same size ([1]; in words, listed as DAA-8): within experimental error of the KA for 8DSS; strength of staining of carious lesions [4]: exceptionally strong staining of carious lesions
10 | 5DSS: peptide of five Asp-Ser-Ser repeats, SEQ ID NO:22 (DSSDSSDSSDSSDSS; synthetic calcium-binding peptide 5DSS, (DSS)-5) | 9.2 × 10^−8 ± 2 × 10^−9 mol/m^2 | 148,000 ± 14,000 M^−1 | – | – | – | – | –
11 | 4NAA: printed once with SEQ ID NO:44; not among the synthesized peptides, probably a misprint (NAANAANAANAA; synthetic calcium-binding peptide 4NAA) | – | – | – | – | – | – | strength of staining of carious lesions [4]: exceptionally strong staining of carious lesions
12 | RWRWRWF [2c-4, RWRWRWF, reference compound] | – | – | – | – | – | – | MIC ([2]; strain UA159, 24 h): 2
13 | NAANAANAANAANAANAANAANAA [8NAA] | – | – | – | very little binding to any healthy tissue | highly specific binding to carious lesions | did bind somewhat to a carious lesion | HA binding activity ([1]; in words): near-total loss of binding activity
14 | NTT NTT NTT NTT (NTTNTTNTTNTT; synthetic calcium-binding peptide 4NTT) | 5.8 × 10^−8 ± 2 × 10^−8 mol/m^2 | 17,000 ± 7,000 M^−1 | significant loss of binding affinity | very low levels of binding to the healthy tooth tissue | – | strong binding to a fragment of periodontal bone | HA binding activity ([1]; in words): near-total loss of binding activity
15 | ETT ETT ETT ETT (ETTETTETTETT; synthetic calcium-binding peptide 4ETT) | 8.8 × 10^−8 ± 9 × 10^−9 mol/m^2 | 79,000 ± 25,000 M^−1 | little observable effect | sharply reduced levels | highly specific binding to carious lesions | binding patterns similar to those of 4DSS | –
16 | LKRFLKWFKRF [b-34, LKRF LKWF KRF, reference compound] | – | – | – | – | – | – | MIC ([2]; strain UA159, 24 h): 5.6
17 | ESS ESS ESS ESS (ESSESSESSESS; synthetic calcium-binding peptide 4ESS) | 4.6 × 10^−8 ± 4 × 10^−9 mol/m^2 | 81,000 ± 18,000 M^−1 | – | lower levels of binding | highly specific binding to carious lesions | – | strength of staining of carious lesions [4]: exceptionally strong staining of carious lesions
